Measured values published in ChEMBL document CHEMBL4130431, “Synthesis and Evaluation of Dolastatin 10 Analogues Containing Heteroatoms on the Amino Acid Side Chains” (2017).
Calls of active or inactive are those of the source. The calls are words filed in the database; no cut-off is given here. Non-standard residues stand in square brackets, D forms with d. Residues, ends and D or L forms follow the SMILES beside them. *: point of attachment. Dolaproine = CO[C@@H]([C@@H]1CCCN1)[C@@H](C)C(=O)O; Abu(3S-N3) = C[C@H](N=[N+]=[N-])[C@H](N)C(=O)O; Dil = CC[C@H](C)[C@H](NC)[C@@H](CC(=O)O)OC; Abu(3S-NH2) = C[C@H](N)[C@H](N)C(=O)O; Dap(N3) = [N-]=[N+]=NC[C@H](N)C(=O)O; NMe2Val = CC(C)[C@@H](C(=O)*)N(C)C; Aha = [N-]=[N+]=NCC[C@H](N)C(=O)O; Pra = C#CC[C@H](N)C(=O)O; Dab = NCC[C@H](N)C(=O)O; Dap = NC[C@H](N)C(=O)O; NHtBu = CC(C)(C)N*; OtBu = CC(C)(C)O*

Columns and labels:
HCC1954 = test: Growth inhibition of human HCC1954 cells after 4 to 6 days by Presto blue assay; format: functional
PC-3 = test: Growth inhibition of human PC3 cells after 4 to 6 days by Presto blue assay; format: functional
Bos taurus = species: Bos taurus; test: Inhibition of bovine brain tubulin polymerization at 10 uM after 60 mins by spectrophotometric method

| Structure (SMILES) | GI50 (HCC1954) [nM] | GI50 (PC-3) [nM] | inhibition (Bos taurus) |
| --- | --- | --- | --- |
| C#CC[C@H](NC(=O)[C@H](C(C)C)N(C)C)C(=O)N(C)[C@@H]([C@@H](C)CC)[C@@H](CC(=O)N1CCC[C@H]1[C@H](OC)[C@@H](C)C(=O)N[C@@H](Cc1ccccc1)C(=O)OC)OC (NMe2Val-[Pra][Dil][Dolaproine]F-OMe) | 0.16 | 0.36 |  |
| CC[C@H](C)[C@@H]([C@@H](CC(=O)N1CCC[C@H]1[C@H](OC)[C@@H](C)C(=O)N[C@@H](Cc1ccccc1)C(=O)O)OC)N(C)C(=O)[C@H](CO)NC(=O)[C@H](C(C)C)N(C)C (NMe2Val-S[Dil][Dolaproine]F-OH) | 4.4 | 19 |  |
| CC[C@H](C)[C@@H]([C@@H](CC(=O)N1CCC[C@H]1[C@H](OC)[C@@H](C)C(=O)N[C@@H](Cc1ccccc1)C(=O)O)OC)N(C)C(=O)[C@@H](NC(=O)[C@H](C(C)C)N(C)C)[C@@H](C)O (NMe2Val-T[Dil][Dolaproine]F-OH) | 3.5 | 5 |  |
| CC[C@H](C)[C@@H]([C@@H](CC(=O)N1CCC[C@H]1[C@H](OC)[C@@H](C)C(=O)N[C@@H](Cc1ccccc1)C(=O)OC)OC)N(C)C(=O)[C@H](CCN)NC(=O)[C@H](C(C)C)N(C)C (NMe2Val-[Dab][Dil][Dolaproine]F-OMe) | > 1000 | > 1000 |  |
| CC[C@H](C)[C@@H]([C@@H](CC(=O)N1CCC[C@H]1[C@H](OC)[C@@H](C)C(=O)N[C@@H](Cc1ccccc1)C(=O)OC)OC)N(C)C(=O)[C@H](CC(=O)O)NC(=O)[C@H](C(C)C)N(C)C (NMe2Val-D[Dil][Dolaproine]F-OMe) | > 1000 | 610 |  |
| CC[C@H](C)[C@@H]([C@@H](CC(=O)N1CCC[C@H]1[C@H](OC)[C@@H](C)C(=O)N[C@@H](Cc1ccccc1)C(=O)OC)OC)N(C)C(=O)[C@H](CS)NC(=O)[C@H](C(C)C)N(C)C (NMe2Val-C[Dil][Dolaproine]F-OMe) | 3.2 | 3.8 |  |
| CC[C@H](C)[C@@H]([C@@H](CC(=O)N1CCC[C@H]1[C@H](OC)[C@@H](C)C(=O)N[C@@H](Cc1ccccc1)C(=O)OC)OC)N(C)C(=O)[C@H](CCN=[N+]=[N-])NC(=O)[C@H](C(C)C)N(C)C (NMe2Val-[Aha][Dil][Dolaproine]F-OMe) | 0.43 | 1.1 |  |
| CC[C@H](C)[C@@H]([C@@H](CC(=O)N1CCC[C@H]1[C@H](OC)[C@@H](C)C(=O)N[C@@H](Cc1ccccc1)C(=O)OC)OC)N(C)C(=O)[C@H](CO)NC(=O)[C@H](C(C)C)N(C)C (NMe2Val-S[Dil][Dolaproine]F-OMe) | 0.34 | 1.2 |  |
| CC[C@H](C)[C@@H]([C@@H](CC(=O)N1CCC[C@H]1[C@H](OC)[C@@H](C)C(=O)N[C@@H](Cc1ccccc1)C(=O)O)OC)N(C)C(=O)[C@@H](NC(=O)[C@H](C(C)C)N(C)C)[C@H](C)N (NMe2Val-[Abu(3S-NH2)][Dil][Dolaproine]F-OH) | 2.5 | 11 |  |
| CC[C@H](C)[C@@H]([C@@H](CC(=O)N1CCC[C@H]1[C@H](OC)[C@@H](C)C(=O)N[C@@H](Cc1ccccc1)C(=O)OC)OC)N(C)C(=O)[C@H](CN)NC(=O)[C@H](C(C)C)N(C)C (NMe2Val-[Dap][Dil][Dolaproine]F-OMe) | 3.5 | 20 |  |
| CC[C@H](C)[C@@H]([C@@H](CC(=O)N1CCC[C@H]1[C@H](OC)[C@@H](C)C(=O)N[C@@H](Cc1ccccc1)C(=O)OC)OC)N(C)C(=O)[C@H](CN=[N+]=[N-])NC(=O)[C@H](C(C)C)N(C)C (NMe2Val-[Dap(N3)][Dil][Dolaproine]F-OMe) | 0.036 | 0.11 |  |
| CC[C@H](C)[C@@H]([C@@H](CC(=O)N1CCC[C@H]1[C@H](OC)[C@@H](C)C(=O)N[C@@H](Cc1ccccc1)C(=O)OC)OC)N(C)C(=O)[C@H](CCCCN)NC(=O)[C@H](C(C)C)N(C)C (NMe2Val-K[Dil][Dolaproine]F-OMe) | 340 |  |  |
| CC[C@H](C)[C@@H]([C@@H](CC(=O)N1CCC[C@H]1[C@H](OC)[C@@H](C)C(=O)N[C@@H](Cc1ccccc1)C(=O)OC)OC)N(C)C(=O)[C@@H](NC(=O)[C@H](C(C)C)N(C)C)[C@@H](C)O (NMe2Val-T[Dil][Dolaproine]F-OMe) | 0.16 | 0.38 |  |
| CC[C@H](C)[C@@H]([C@@H](CC(=O)N1CCC[C@H]1[C@H](OC)[C@@H](C)C(=O)N[C@@H](Cc1ccccc1)C(=O)OC)OC)N(C)C(=O)[C@@H](NC(=O)[C@H](C(C)C)N(C)C)[C@H](C)N (NMe2Val-[Abu(3S-NH2)][Dil][Dolaproine]F-OMe) | 0.076 | 0.54 |  |

Results, then the molecule that gave them:

| GI50 (HCC1954) [nM] | GI50 (PC-3) [nM] | inhibition (Bos taurus) | Structure (SMILES) |
| --- | --- | --- | --- |
| 3.7 | 5.1 |  | CC[C@H](C)[C@@H]([C@@H](CC(=O)N1CCC[C@H]1[C@H](OC)[C@@H](C)C(=O)NCCc1ccccn1)OC)N(C)C(=O)[C@@H](NC(=O)[C@H](C(C)C)N(C)C)[C@H](C)N=[N+]=[N-] |
| > 1000 | > 1000 |  | CC[C@H](C)[C@@H]([C@@H](CC(=O)N1CCC[C@H]1[C@H](OC)[C@@H](C)C(=O)N[C@@H](Cc1ccccc1)C(=O)O)OC)N(C)C(=O)[C@@H](NC(=O)[C@H](C(C)C)N(C)C)[C@H](C)N=[N+]=[N-] (NMe2Val-[Abu(3S-N3)][Dil][Dolaproine]F-OH) |
| 0.041 | 0.093 |  | CC[C@H](C)[C@@H]([C@@H](CC(=O)N1CCC[C@H]1[C@H](OC)[C@@H](C)C(=O)N[C@@H](Cc1ccccc1)C(=O)OC)OC)N(C)C(=O)[C@@H](NC(=O)[C@H](C(C)C)N(C)C)[C@H](C)N=[N+]=[N-] (NMe2Val-[Abu(3S-N3)][Dil][Dolaproine]F-OMe) |
| 0.4 | 1.7 |  | CC[C@H](C)[C@@H]([C@@H](CC(=O)N1CCC[C@H]1[C@H](OC)[C@@H](C)C(=O)N[C@@H](Cc1ccccc1)C(N)=O)OC)N(C)C(=O)[C@@H](NC(=O)[C@H](C(C)C)N(C)C)[C@H](C)N=[N+]=[N-] (NMe2Val-[Abu(3S-N3)][Dil][Dolaproine]F-NH2) |
| 13 | 34 |  | CC[C@H](C)[C@@H]([C@@H](CC(=O)N1CCC[C@H]1[C@H](OC)[C@@H](C)C(=O)NCCc1ccccc1Cl)OC)N(C)C(=O)[C@@H](NC(=O)[C@H](C(C)C)N(C)C)[C@H](C)N=[N+]=[N-] |
| 0.4 | 1.2 |  | CC[C@H](C)[C@@H]([C@@H](CC(=O)N1CCC[C@H]1[C@H](OC)[C@@H](C)C(=O)N[C@@H](Cc1ccccc1)C(=O)NC(C)(C)C)OC)N(C)C(=O)[C@@H](NC(=O)[C@H](C(C)C)N(C)C)[C@H](C)N=[N+]=[N-] (NMe2Val-[Abu(3S-N3)][Dil][Dolaproine]F-NHtBu) |
| 33 | 40 |  | CC[C@H](C)[C@@H]([C@@H](CC(=O)N1CCC[C@H]1[C@H](OC)[C@@H](C)C(=O)NCCc1ccc(Cl)cc1)OC)N(C)C(=O)[C@@H](NC(=O)[C@H](C(C)C)N(C)C)[C@H](C)N=[N+]=[N-] |
| 18 | 33 | Active | CC[C@H](C)[C@@H]([C@@H](CC(=O)N1CCC[C@H]1[C@H](OC)[C@@H](C)C(=O)N[C@@H](Cc1ccccc1)c1nccs1)OC)N(C)C(=O)[C@@H](NC(=O)[C@H](C(C)C)N(C)C)[C@H](C)N=[N+]=[N-] |
| 27 | 41 | Active | CC[C@H](C)[C@@H]([C@@H](CC(=O)N1CCC[C@H]1[C@H](OC)[C@@H](C)C(=O)N[C@@H](Cc1ccccc1)c1nnn[nH]1)OC)N(C)C(=O)[C@@H](NC(=O)[C@H](C(C)C)N(C)C)[C@H](C)N=[N+]=[N-] |
| 3.1 | 4.7 |  | CC[C@H](C)[C@@H]([C@@H](CC(=O)N1CCC[C@H]1[C@H](OC)[C@@H](C)C(=O)NCCc1ccccc1)OC)N(C)C(=O)[C@@H](NC(=O)[C@H](C(C)C)N(C)C)[C@H](C)N=[N+]=[N-] |
| 21 |  |  | CC[C@H](C)[C@@H]([C@@H](CC(=O)N1CCC[C@H]1[C@H](OC)[C@@H](C)C(=O)NCCc1ccccn1)OC)N(C)C(=O)[C@@H](NC(=O)[C@H](C(C)C)N(C)C)[C@@H](C)O |
| > 1000 | > 1000 |  | CC[C@H](C)[C@@H]([C@@H](CC(=O)N1CCC[C@H]1[C@H](OC)[C@@H](C)C(=O)NCCc1ccccn1)OC)N(C)C(=O)[C@H](CO)NC(=O)[C@H](C(C)C)N(C)C |
| 34 | 50 |  | CC[C@H](C)[C@@H]([C@@H](CC(=O)N1CCC[C@H]1[C@H](OC)[C@@H](C)C(=O)N[C@H](C)[C@@H](O)c1ccccc1)OC)N(C)C(=O)[C@@H](NC(=O)[C@H](C(C)C)N(C)C)[C@H](C)N=[N+]=[N-] |
| 0.089 | 0.045 |  | CC[C@H](C)[C@@H]([C@@H](CC(=O)N1CCC[C@H]1[C@H](OC)[C@@H](C)C(=O)N[C@@H](Cc1ccccc1)C(=O)OC(C)(C)C)OC)N(C)C(=O)[C@@H](NC(=O)[C@H](C(C)C)N(C)C)[C@H](C)N=[N+]=[N-] (NMe2Val-[Abu(3S-N3)][Dil][Dolaproine]F-OtBu) |
